In patent US12116358B2, “Substituted indoles and methods of use thereof” (EPIZYME, INC., priority 2018, dated 2024):

The compounds below were run against T1, SETD2(1434-1711) (Homo sapiens, UniProt Q9BYW2) (assay: SETD2 (1434-1711) assay). Conditions: read-out: SETD2 (1434-1711).
T1 construct: SETD2 (1434-1711) Assay; catalogue N/A
T1 sequence (Q9BYW2 1434-1711): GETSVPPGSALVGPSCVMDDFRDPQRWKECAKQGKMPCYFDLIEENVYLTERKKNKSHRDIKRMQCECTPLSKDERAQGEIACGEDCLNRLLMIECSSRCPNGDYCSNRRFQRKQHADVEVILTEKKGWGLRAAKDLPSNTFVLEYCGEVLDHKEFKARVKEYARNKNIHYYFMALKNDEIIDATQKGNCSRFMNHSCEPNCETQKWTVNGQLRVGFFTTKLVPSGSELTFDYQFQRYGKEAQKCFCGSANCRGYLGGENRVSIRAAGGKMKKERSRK
Assay type: biochemical

SMILES | IC50 [µM]
Cc1cccc2cc(C(=O)NCc3cn4ccnc4cn3)[nH]c12 [compound 710] | 83.4
CCc1c(C(=O)N[C@H]2CC[C@H](NC(=O)CCN)CC2)[nH]c2c(C)cccc12 [compound 711] | 85.9
Cc1cccc2cc(C(=O)NC(C)c3ccn(C)n3)[nH]c12 (stereo not drawn) [compound 712] | 86.4
Cc1cc(CNC(=O)c2cc3cccc(C)c3[nH]2)no1 [compound 719] | 107
Cc1nc(CNC(=O)c2cc3cccc(C)c3[nH]2)c(C)o1 [compound 721] | 113
Cc1cnc(CNC(=O)c2cc3cccc(C)c3[nH]2)cn1 [compound 723] | 116
Cc1cccc2cc(C(=O)Nc3cc(CN4CCOCC4)ccn3)[nH]c12 [compound 724] | 117
Cc1cccc2cc(C(=O)NC(CCN(C)C)c3cccnc3)[nH]c12 (stereo not drawn) [compound 725] | 123
Cc1cccc2cc(C(=O)NC(c3cncc(CN(C)C)c3)C3CC3)[nH]c12 (stereo not drawn) [compound 727] | 125
Cc1cccnc1C(CCN(C)C)NC(=O)c1cc2cccc(C)c2[nH]1 (stereo not drawn) [compound 728] | 127
Cc1cccc2cc(C(=O)NCc3cnc[nH]3)[nH]c12 [compound 729] | 129
Cc1ccc(C)c2[nH]c(C(=O)N[C@H]3CC[C@H](N)CC3)cc12 [compound 730] | > 130
Cc1nonc1CNC(=O)c1cc2cccc(C)c2[nH]1 [compound 732] | 137
Cc1cccc2cc(C(=O)NCc3cocn3)[nH]c12 [compound 733] | 147
Cc1noc(C(C)NC(=O)c2cc3cccc(C)c3[nH]2)n1 (stereo not drawn) [compound 735] | 165
Cc1c(C(=O)N[C@H]2CC[C@H](N)CC2)[nH]c2c(C)cccc12 [compound 736] | 168
Cc1cc(C)c2[nH]c(C(=O)N[C@H]3CC[C@H](NC(=O)CCN)CC3)cc2c1 [compound 738] | 179
Cc1cccc2cc(C(=O)NCCN3CCOCC3)[nH]c12 [compound 746] | > 200
Cc1cccc2cc(C(=O)NCc3ccc(CN4CCOCC4)cc3)[nH]c12 [compound 755] | > 200
Cc1cc(C)c2[nH]c(C(=O)N[C@H]3CC[C@H](N)CC3)cc2c1 [compound 756] | > 200

SMILES | IC50 [µM]
Cc1cccc2cc(C(=O)N3CCN(c4ncccc4C(N)=O)CC3)[nH]c12 [compound 757] | > 200
Cc1cccc2cc(C(=O)NCc3ccc(S(=O)(=O)N4CCCCC4)cc3)[nH]c12 [compound 758] | > 200
Cc1cccc2cc(C(=O)N(C)[C@H]3CC[C@H](N)CC3)[nH]c12 [compound 761] | > 200
Cc1cccc2cc(C(=O)N[C@H](CO)C(C)C)[nH]c12 [compound 763] | > 200
COC(=O)CC(NC(=O)c1cc2cccc(C)c2[nH]1)c1ccc(Cl)cc1 (stereo not drawn) [compound 764] | > 200
Cc1cccc2cc(C(=O)NC(C)CNC(=O)OC(C)(C)C)[nH]c12 (stereo not drawn) [compound 766] | > 200
Cc1cccc2cc(C(=O)NCc3ncnn3C)[nH]c12 [compound 768] | > 200
Cc1cccc2cc(C(=O)NC(C3CC3)C(F)(F)F)[nH]c12 (stereo not drawn) [compound 769] | > 200
Cc1cccc2cc(C(=O)N3CCC(C(N)=O)CC3)[nH]c12 [compound 771] | > 200
COC(=O)CC(NC(=O)c1cc2cccc(C)c2[nH]1)c1ccc(C(C)C)cc1 (stereo not drawn) [compound 773] | > 200
COC(=O)CC(NC(=O)c1cc2cccc(C)c2[nH]1)c1ccc(F)cc1 (stereo not drawn) [compound 776] | > 200
COC(=O)CC(NC(=O)c1cc2cccc(C)c2[nH]1)c1ccc(OC)cc1 (stereo not drawn) [compound 777] | > 200
COC(=O)CC(NC(=O)c1cc2cccc(C)c2[nH]1)c1ccc(Br)cc1 (stereo not drawn) [compound 778] | > 200
Cc1cccc2cc(C(=O)N3CCN(CC(N)=O)CC3)[nH]c12 [compound 781] | > 200
Cc1nc(CCNC(=O)c2cc3cccc(C)c3[nH]2)no1 [compound 782] | > 200
COC(=O)CC(NC(=O)c1cc2cccc(C)c2[nH]1)c1ccc(C)cc1 (stereo not drawn) [compound 783] | > 200
Cc1cccc2cc(C(=O)NCC(O)C(F)F)[nH]c12 (stereo not drawn) [compound 784] | > 200
Cc1nc(C(C)NC(=O)c2cc3cccc(C)c3[nH]2)no1 (stereo not drawn) [compound 785] | > 200
Cc1cccc2cc(C(=O)N3CCCC3C(N)=O)[nH]c12 (stereo not drawn) [compound 786] | > 200
Cc1cccc2cc(C(=O)N3CCN(C(N)=O)CC3)[nH]c12 [compound 787] | > 200

Now from value to compound:

IC50 [µM] | SMILES
91.2 | Cc1cccc([C@@H](C)NC(=O)c2cc3cccc(C)c3[nH]2)c1 [compound 713]
98.9 | Cc1cccc2cc(C(=O)NC(C)c3cccc4ccccc34)[nH]c12 (stereo not drawn) [compound 714]
98.9 | Cc1cccc2cc(C(=O)NC3CCNCC3)[nH]c12 [compound 715]
> 100 | Cc1cccc2cc(C(=O)NCc3ccccc3N3CCCCC3)[nH]c12 [compound 716]
> 100 | Cc1cccnc1C(NC(=O)c1cc2cccc(C(F)(F)F)c2[nH]1)C1CC1 (stereo not drawn) [compound 717]
103 | Cc1cccc2cc(C(=O)N3CCCc4ccccc4C3)[nH]c12 [compound 718]
109 | Cc1cccc2cc(C(=O)NCC(O)c3c(F)cccc3F)[nH]c12 (stereo not drawn) [compound 720]
116 | Cc1cccnc1C(NC(=O)c1cc2cccc(C)c2[nH]1)C1CCNC1 (stereo not drawn) [compound 722]
124 | Cc1cccc2cc(C(=O)N[C@H](c3ccccc3)C(F)(F)F)[nH]c12 [compound 726]
137 | Cc1cccc2cc(C(=O)NCC(O)C3CC3)[nH]c12 (stereo not drawn) [compound 731]
> 200 | Cc1cccc2cc(C(=O)NCC3CCCO3)[nH]c12 (stereo not drawn) [compound 747]
> 200 | Cc1cccc2cc(C(=O)NC3CCc4ccccc43)[nH]c12 (stereo not drawn) [compound 748]
> 200 | Cc1cccc2cc(C(=O)NC(C)c3ccccc3)[nH]c12 (stereo not drawn) [compound 749]
> 200 | Cc1cccc2cc(C(=O)NCc3cccc(N4CCCCC4)c3)[nH]c12 [compound 750]
> 200 | Cc1cccc2cc(C(=O)NCc3cccc(S(=O)(=O)N4CCCCC4)c3)[nH]c12 [compound 751]
> 200 | Cc1cccc2cc(C(=O)NC3CCN(Cc4ccccc4)CC3)[nH]c12 [compound 752]
> 200 | Cc1cccc2cc(C(=O)NC3CCCc4ccccc43)[nH]c12 (stereo not drawn) [compound 753]
> 200 | COc1ccc(C(O)CNC(=O)c2cc3cccc(C)c3[nH]2)cc1 (stereo not drawn) [compound 754]
> 200 | Cc1cccc2cc(C(=O)N[C@H]3C[C@@H](CO)C3)[nH]c12 [compound 759]
> 200 | Cc1cccc2cc(C(=O)N[C@H](CO)Cc3ccccc3)[nH]c12 [compound 765]
> 200 | Cc1cccc2cc(C(=O)NCc3ccccc3OCC3CC3)[nH]c12 [compound 767]
> 200 | COC(=O)CC(NC(=O)c1cc2cccc(C)c2[nH]1)c1ccccc1Br (stereo not drawn) [compound 774]
> 200 | COC(=O)CC(NC(=O)c1cc2cccc(C)c2[nH]1)c1ccccc1 (stereo not drawn) [compound 775]
> 200 | Cc1cccc2cc(C(=O)NCc3nc4ccccc4o3)[nH]c12 [compound 779]
> 200 | Cc1cccc2cc(C(=O)N[C@H]3CC[C@H](C(F)(F)F)CC3)[nH]c12 [compound 780]
> 200 | Cc1cccc2cc(C(=O)NC(C)c3ccccc3C(F)(F)F)[nH]c12 (stereo not drawn) [compound 788]
